Assay results: patent US10098372B2, “Whitening composition and the use thereof” (INFINITUS (CHINA) COMPANY LTD, priority 2015, dated 2018)

Legend:
[1] = system: melanoma cells from B16 mice; test: Effect on melanin content (melanin synthesis) in melanoma cells from B16 mice; type: cell-based; conditions: Mus musculus, 72 h, 3 days, n = 4, read-out: The inhibitory rate for melanin synthesis
Procedure: The experiments were: melanoma cells from B16 mice (purchased from Shanghai Fuxiang Biotechnology Co., Ltd.) were adjusted with DMEM cell culture medium containing 10% fetal bovine serum, 100 U/mL penicillin and 100 U/mL streptomycin to reach a density of 1×10^5/mL, and were seeded into 6-well cell culture plates (3 mL per well). After cultured at 37° C., 5% CO2 for 24 h, the test sample (Example 2) was added. After 3 days, the supernatant was discarded, and the cells were washed with PBS, then added with trypsin to degest the cells for 3 min (0.5 mL per well). Afterwards, 2 mL cell culture medium was added to terminate the digestion reaction, and cells of each group were counted. After centrifugation, the supernatant was discarded, and 0.5 mL of 1 mol/L NaOH solution was added. After vibrated for 1 h, a 1500 r/min centrifugation was conducted for 5 min. 200 μL was respectively taken and transferred to a 96-well cell culture plate, and tested for absorbance at 450 nm via a microplate reader to calculate the inhibitory rate for melanin synthesis. In the experiment, the control wells were added with the same volume amount of PBS as that of the sample. […]
A is the absorbance of the wells containing drug (i.e., sample wells or positive control wells), B is the number of cells in the wells containing drug, C the absorbance of the control wells, D is the number of cells in control wells.

[2] = target: T1, intracellular tyrosinase in melanoma cells from B16 mice (Mus musculus, UniProt P11344); test: Effect on intracellular tyrosinase activity in melanoma cells from B16 mice; type: cell-based; conditions: 3 days, n = 4, read-out: Inhibitory rate for tyrosinase activity
T1 construct: B16 melanin cells were adjusted with DMEM cell culture medium; endogenous in cells; host or cells: B16 mouse melanoma cells
T1 sequence (P11344 19-533): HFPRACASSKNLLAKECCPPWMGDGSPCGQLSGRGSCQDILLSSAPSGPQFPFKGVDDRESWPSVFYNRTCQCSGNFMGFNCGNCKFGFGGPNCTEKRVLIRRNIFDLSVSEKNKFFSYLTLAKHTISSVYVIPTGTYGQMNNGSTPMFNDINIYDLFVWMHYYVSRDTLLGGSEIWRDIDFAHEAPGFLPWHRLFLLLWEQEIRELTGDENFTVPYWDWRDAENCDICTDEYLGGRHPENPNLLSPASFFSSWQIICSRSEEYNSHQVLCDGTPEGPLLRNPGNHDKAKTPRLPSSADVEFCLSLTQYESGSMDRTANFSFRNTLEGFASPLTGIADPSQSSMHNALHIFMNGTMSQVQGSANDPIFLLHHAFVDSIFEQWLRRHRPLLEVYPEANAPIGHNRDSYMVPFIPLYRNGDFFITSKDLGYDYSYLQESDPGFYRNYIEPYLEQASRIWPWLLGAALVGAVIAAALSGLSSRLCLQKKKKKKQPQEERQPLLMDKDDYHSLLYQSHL
Procedure: The experiments were: B16 melanin cells were adjusted with DMEM cell culture medium containing 10% fetal bovine serum, 100 U/mL penicillin and 100 U/mL streptomycin to reach a density of 1×10^5/mL, and were seeded into 6-well cell culture plates (3 mL per well). After cultured at 37° C., 5% CO2 for 24 h, the test sample (Example 2) was added. After 3 days, the supernatant was discarded, and the cells were washed with PBS for twice. After each well was added 180 μL PBS solution containing 1% (v/v) Triton X-100, the cells were subjected to ultrasonication under ice bath, then each well was added 20 μL 10 mmol/L of L-DOPA, incubated at 37° C. for 60 min. A 1500 r/min centrifugation was conducted for 5 min. 100 μL was respectively taken and transferred to a 96-well cell culture plate, and tested for absorbance at 492 nm via a microplate reader to calculate the inhibitory rate for intracellular tyrosinase activity. The control wells were added with the same volume amount of PBS as that of the sample. The positive control employs arbutin, at an effect concentration of 200 μM. Inhibition rate=(1−A/B)×100%
wherein A is the mean absorbance of the wells containing drug (i.e., sample wells or positive control wells), B is the mean absorbance of the control wells.

- inhibition at 400 µM [2]: 49 ± 9.44%
Structure (SMILES): OC[C@H]1O[C@@H](Oc2ccc(O)cc2)[C@H](O)[C@@H](O)[C@@H]1O [Arbutin]
- inhibition at 200 µM [1]: 46.7 ± 10%
